Data from the supplement of paper PMC10307832.

How the values were obtained:
Experiment in all cases: relative viability (nuclei count vs DMSO), 5 days (fraction); higher = more cells survive
SGI-1776 + Palbociclib = compound: CN1CCC(CNc2ccc3ncc(-c4cccc(OC(F)(F)F)c4)n3n2)CC1 [SGI-1776] + CC(=O)c1c(C)c2cnc(Nc3ccc(N4CCNCC4)cn3)nc2n(C2CCCC2)c1=O [Palbociclib] (partner 0.5 µM)
Outline: (§1)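 Each reported value is a median over duplicate plates. It expresses relative viability: treated-well nuclei count divided by vehicle-well nuclei count. Lung cancer cell lines in 1536-well plates were dosed by pin tool a day after seeding, alone with one drug or with a fixed anchor-drug dose plus five library-drug doses (not always all listed) in √10 steps, and nuclei were counted after 5 days.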

[1] = compound: C1COCCN1C2=NC(=NC3=C2OC4=C3C=CC=N4)C5=CC(=CC=C5)NC(=O)C6=CN=C(C=C6)N + Cc1nc(Nc2ncc(C(=O)Nc3c(C)cccc3Cl)s2)cc(N2CCN(CCO)CC2)n1 [Dasatinib] (partner 0.075 µM)
Outline: as §1

SGI-1776 + Navitoclax = compound: CN1CCC(CNc2ccc3ncc(-c4cccc(OC(F)(F)F)c4)n3n2)CC1 [SGI-1776] + CC1(C)CCC(c2ccc(Cl)cc2)=C(CN2CCN(c3ccc(C(=O)NS(=O)(=O)c4ccc(N[C@H](CCN5CCOCC5)CSc5ccccc5)c(S(=O)(=O)C(F)(F)F)c4)cc3)CC2)C1 [Navitoclax] (partner 0.5 µM)
Outline: as §1

Entinostat + AZD7762 = compound: Nc1ccccc1NC(=O)c1ccc(CNC(=O)OCc2cccnc2)cc1 [Entinostat] + NC(=O)Nc1cc(-c2cccc(F)c2)sc1C(=O)N[C@H]1CCCNC1 [AZD7762] (partner 0.2 µM)
Outline: as §1

Cell Line | relative viability (SGI-1776 + Palbociclib; first compound 0.08 µM) | relative viability (SGI-1776 + Palbociclib; first compound 0.8 µM) | relative viability (SGI-1776 + Palbociclib; first compound 2.53 µM) | relative viability (SGI-1776 + Palbociclib; first compound 8 µM) | relative viability ([1]; first compound 0.02 µM) | relative viability ([1]; first compound 0.06325 µM) | relative viability ([1]; first compound 0.2 µM) | relative viability ([1]; first compound 0.6325 µM) | relative viability ([1]; first compound 2 µM) | relative viability (SGI-1776 + Navitoclax; first compound 0.08 µM) | relative viability (SGI-1776 + Navitoclax; first compound 0.8 µM) | relative viability (SGI-1776 + Navitoclax; first compound 2.53 µM) | relative viability (SGI-1776 + Navitoclax; first compound 8 µM) | relative viability (Entinostat + AZD7762; first compound 0.02 µM) | relative viability (Entinostat + AZD7762; first compound 0.06325 µM) | relative viability (Entinostat + AZD7762; first compound 0.2 µM) | relative viability (Entinostat + AZD7762; first compound 0.6325 µM) | relative viability (Entinostat + AZD7762; first compound 2 µM)
NCI-H1755 | 0.461 | 0.444 | 0.438 | 0.438 | 0.499 | 0.408 | 0.409 | 0.346 | 0.256 | 1.02 | 0.976 | 0.934 | 0.856 | 0.406 | 0.486 | 0.493 | 0.405 | 0.355
NCI-H1792 | 0.659 | 0.626 | 0.59 | 0.615 | 0.746 | 0.79 | 0.768 | 0.464 | 1.13 | 0.614 | 0.72 | 0.654 | 0.479 | 0.731 | 0.747 | 0.465 | 0.236 | 0.153
NCI-H1793 | 0.353 | 0.335 | 0.311 | 0.298 | 0.378 | 0.453 | 0.417 | 0.334 | 0.383 | 0.358 | 0.52 | 0.482 | 0.31 | 0.508 | 0.643 | 0.302 | 0.23 | 0.302
NCI-H1915 | 0.534 | 0.541 | 0.554 | 0.509 | 0.277 | 0.329 | 0.331 | 0.349 | 0.264 | 0.795 | 0.802 | 0.793 | 0.781 | 0.713 | 0.694 | 0.716 | 0.526 | 0.286
NCI-H1944 | 0.346 | 0.312 | 0.303 | 0.279 | 0.201 | 0.211 | 0.206 | 0.215 | 0.207 | 1.03 | 1.09 | 1.07 | 1.07 | 0.413 | 0.463 | 0.394 | 0.259 | 0.238
NCI-H1975 | 0.684 | 0.563 | 0.568 | 0.526 | 0.362 | 0.388 | 0.298 | 0.296 | 0.187 | 1.21 | 1.06 | 0.883 | 0.817 | 0.628 | 0.612 | 0.669 | 0.476 | 0.395
NCI-H1993 | 0.466 | 0.662 | 0.526 | 0.504 | 0.553 | 0.552 | 0.594 | 0.572 | 0.492 | 0.95 | 0.945 | 0.832 | 0.56 | 0.777 | 0.741 | 0.69 | 0.468 | 0.366
NCI-H2085 | 0.491 | 0.482 | 0.468 | 0.444 | 0.223 | 0.252 | 0.25 | 0.204 | 0.258 | 1.18 | 1.07 | 1.2 | 0.945 | 0.965 | 0.93 | 0.909 | 0.683 | 0.692
NCI-H2087 | 0.299 | 0.231 | 0.293 | 0.204 | 0.942 | 0.913 | 0.799 | 0.845 | 0.441 | 0.963 | 1.04 | 1.04 | 0.861 | 1.22 | 0.975 | 1.04 | 1.03 | 0.355
NCI-H2126 | 0.389 | 0.334 | 0.361 | 0.331 | 0.691 | 0.587 | 0.528 | 0.507 | 0.551 | 0.809 | 0.877 | 0.846 | 0.743 | 0.936 | 1.03 | 1.01 | 0.737 | 0.495
NCI-H2170 | 0.376 | 0.349 | 0.408 | 0.364 | 0.561 | 0.507 | 0.551 | 0.538 | 0.618 | 0.561 | 0.678 | 0.581 | 0.56 | 0.876 | 0.878 | 0.825 | 0.602 | 0.193
NCI-H2347 | 0.414 | 0.455 | 0.44 | 0.426 | 0.291 | 0.257 | 0.349 | 0.321 | 0.323 | 0.886 | 0.787 | 0.808 | 0.673 | 0.741 | 0.755 | 0.576 | 0.378 | 0.255
NCI-H2405 | 0.553 | 0.516 | 0.484 | 0.44 | 0.209 | 0.229 | 0.223 | 0.215 | 0.213 | 0.823 | 0.804 | 0.779 | 0.452 | 0.795 | 0.896 | 0.704 | 0.641 | 0.495
NCI-H3122 | 0.206 | 0.2 | 0.173 | 0.165 | 0.796 | 0.786 | 0.787 | 0.868 | 0.657 | 1.01 | 1.03 | 1.03 | 1.04 | 1.03 | 1.01 | 1.15 | 0.971 | 0.805
PC-3 [JPC-3] | 0.518 | 0.534 | 0.533 | 0.49 | 1.18 | 1.08 | 1.02 | 0.818 | 0.629 | 0.704 | 0.767 | 0.862 | 0.699 | 1.06 | 0.804 | 0.738 | 0.522 | 0.231
PC-14 | 0.573 | 0.448 | 0.436 | 0.0558 | 0.229 | 0.229 | 0.218 | 0.138 | 0.175 | 0.97 | 1.05 | 1.04 | 0.93 | 0.577 | 0.364 | 0.397 | 0.165 | 0.0725
RERF-LC-KJ | 1.01 | 1.06 | 1.07 | 0.748 | 0.944 | 1 | 0.79 | 0.713 | 0.559 | 0.936 | 1.04 | 0.937 | 0.789 | 1.12 | 1.07 | 0.748 | 0.707 | 0.329
